{"source": "patent US20020182619A1", "about": "“Compositions, kits, and methods for identification, assessment, prevention, and therapy of ovarian cancer” (Millennium Pharmaceuticals, Inc., priority 2000, published 2002)", "tested_on": "ovarian cell line (OVCAR3)", "test": "Transcript profiling on nylon arrays of OVCAR3 untreated or treated with LPA, LYS294002, or both", "format": "cell-based", "procedure": "Nylon arrays were prepared by spotting purified PCR product onto a nylon membrane using a robotic gridding system linked to a sample database. Several thousand clones were spotted on each nylon filter.\nRNA or DNA from cell lines were used for hybridization against the nylon arrays. The RNA or DNA is labeled utilizing an in vitro reverse transcription reaction that contains a radiolabeled nucleotide that is incorporated during the reaction. Hybridization experiments were carried out by combining labeled RNA or DNA samples with nylon filters in a hybridization chamber. Duplicate, independent hybridization experiments were performed to generate transcriptional profiling data. See, Nature Genetics, 21 (1999).\nThe level of expression of ˜25,000 potential markers were measured in 4 samples, an untreated ovarian cell line (OVCAR3), OVCAR3 treated with LPA, OVCAR3 treated with LYS294002, and OVCAR3 treated with LPA and LYS294002. LYS294002 is a specific inhibitor of the P13Kinase pathway.\nTable 1 represents the markers that are expressed at least 2.5 fold greater in the OVCAR3 cell line treated with LPA as compared to the untreated cell line (column G). Table 1 also lists the expression value of these potential marker in the 4 samples, untreated OVCAR3, OVCAR3 treated with LPA, OVCAR3 treated with LYS294002, and OVCAR3 treated with LYS294002 and LPA (columns C-F). […]", "data": [{"substance": "lysophosphatidic acid [LPA]", "values": [{"measurement": "UPinLPA vs OVCAR3: marker expression in the OVCAR3 cell line treated with LPA as compared to the untreated cell line", "setting": "markers of Table 1, quotient of Ave-LPA divided by Ave-OVCAR3", "value": "at least 2.5 fold"}, {"measurement": "UPinOVCAR3 vs LPA: marker expression in the untreated OVCAR3 cell line as compared to the cell line treated with LPA", "setting": "markers of Table 2, quotient of Ave-OVCAR3 divided by Ave-LPA", "value": "at least 4 fold"}]}]}
